± gives the expanded uncertainty stated by the source.
Experiments:
[1] = Crystal; DSC
[2] = Molar enthalpy of transition or fusion; settings: Crystal; DSC

Triple point temperature [1]: 446.04 ± 0.87 K
Molar enthalpy of transition or fusion [2]: 28.1 ± 1.5 kJ/mol
SMILES: NNC(=O)c1ccncc1 [isonicotinic acid hydrazide]

Source: the NIST ThermoML archive (doi:10.1021/acs.jced.8b00785)
